A short description of series [1]: In vitro dissolution test, microcentrifuge method, PBS (Example 1). It counts as physicochemical. The following applies: PBS pH 6.5, 37° C.; for AUC90: 90 minutes; for C1200: concentration at 1200 minutes; for MDC,90: maximum concentration during first 90 minutes. How it is done:
Dispersions 2, 3, 4, and 10 were evaluated in in vitro dissolution tests using a microcentrifuge method. In this method, 3.6 mg of the spray-dried dispersions was added to a 2-mL microcentrifuge tube. The tube was placed in a 37° C. sonicating bath, and 1.8 mL of phosphate-buffered saline (PBS) at pH 6.5 and 290 mOsm/kg was added. The samples were quickly mixed using a vortex mixer for about 90 seconds. The theoretical maximum concentration of drug if all the drug dissolved was 1000 μg/mL. The samples were centrifuged at 13,000 G at 37° C. for 1 minute. The resulting supernatant solution was then sampled (100 μL) and diluted with 200 μL methanol and then analyzed by HPLC. The tubes were then mixed on the vortex mixer and allowed to stand undisturbed at 37° C. until the next sample. Samples were collected at 4, 10, 20, 40, 90, and 1200 minutes.
As controls, in vitro tests were performed using the procedure described above, except that 0.18 mg of crystalline drug was placed in a microcentrifuge tube and mixed with 1.8 mL of PBS.

Series [2] can be described thus: In vitro membrane permeation test, Drug 1 (Example 6). It counts as physicochemical. The following applies: 37° C. How it is done:
Dispersion 14 was evaluated in vitro using a membrane permeation test as follows. An Accurel® PP 1E microporous polypropylene membrane was obtained from Membrana GmbH (Wuppertal, Germany). The membrane was washed in isopropyl alcohol and rinsed in methanol in a sonicating bath for 1 minute at ambient temperature, and then allowed to air dry at ambient temperature. The feed side of the membrane was then plasma-treated to render it hydrophilic by placing a sample of the membrane in a plasma chamber. The atmosphere of the plasma chamber was saturated with water vapor at a pressure of 550 mtorr. A plasma was then generated using radio frequency (RF) power inductively coupled into the chamber via annular electrodes at a power setting of 50 watts for 45 seconds. The contact angle of a drop of water placed on the surface of the plasma-treated membrane was about 40°. […]
To form the feed solution, a 1.2 mg sample of the dispersion was weighed into the feed reservoir. […] Samples were then diluted in 250 μL IPA and analyzed using HPLC. […]
The maximum flux of drug across the membrane (in units of μg/cm^2-min) was determined by performing a least-squares fit to the data from 0 to 60 minutes to obtain the slope, multiplying the slope by the permeate volume (5 mL), and dividing by the membrane area (4.9 cm^2). […]

Series [3] is described as follows: Microcentrifuge dissolution test in MFD solution, crystallization inhibition (Example 5). It counts as physicochemical. The following applies: 37° C. How it is done: First, Dispersions 12 and 13 were evaluated in an in vitro dissolution test using the microcentrifuge method described in Example 1 except that 2.04 mg of the dispersions were separately added to microcentrifuge tubes in duplicate. A 1.8-mL sample of a model fasted duodenal (MFD) solution was then added to the tube and the samples were quickly mixed using a vortex mixer for about 90 seconds. The theoretical maximum concentration of drug if all the drug dissolved was about 100 μgA/mL, where “μgA” refers to the active micrograms of Drug 5. Samples were collected and analyzed by HPLC using a Kromasil C4 column (250 mm×4.6 mm). The mobile phase consisted of 0.2 vol % H3PO4/acetonitrile in a volume ratio of 45/55. Drug concentration was calculated by comparing UV absorbance at 245 nm to the absorbance of Drug 5 standards.
As a control, […] of Drug 5 (in the HCl salt form) was added to a separate microcentrifuge tube so that the concentration of drug if all of the drug had dissolved would have been about 200 μgA/mL. […] The MDC90 values provided by Dispersions 12 and 13 were 3.5-fold and 3.0-fold that of the crystalline Drug 5 control, while the AUC90 values were 2.6-fold and 2.7-fold that of the crystalline control. Furthermore, the concentration of dissolved Drug 5 after 1200 minutes (C1200) was higher for Dispersions 12 and 13 than the crystalline control, with Dispersions 12 and 13 providing C1200 values that were 1.7- and 1.4-fold that of the crystalline control, respectively.

Series [4] in a line: Solubility of drug in polymer by double-scan DSC (Example 3). It counts as physicochemical. How it is done: The solubilities of drug in HPMCAS polymers were determined using a double-scan differential scanning calorimetry (DSC) analysis of the dispersions as follows. The DSC analysis was carried out on either a TA Instruments DSC2920 or a Mettler DSC 821, calibrated with indium. DSC samples were prepared by weighing 2-4 mg of the dispersion in an aluminum pan with a pinhole. The sample was heated under nitrogen, at a rate of 5° C. per minute from about −20° C. to about 140° C. […] Heating above the Tg allows the drug to phase separate from the dispersion if the drug solubility in the polymer is lower than the drug loading.
The sample was then cooled and the sample was scanned a second time using the procedures outlined above. […] The amount of phase separated amorphous drug was estimated by comparing the magnitude of the heat capacity for the phase separated amorphous drug with the heat capacity for pure amorphous drug controls. […]

The nature of series [5]: Aqueous solubility of the drugs used in the examples. Conditions: water.

The record followed here is patent US8940800B2, “Pharmaceutical compositions with enhanced performance” (Bend Research, Inc., priority 2004, dated 2015).

Structures are written as SMILES. Values joined by “and” are separate entries in the source; they are usually repeats but may differ in a detail not shown here. Equal values may be shown once. A value given as a limit tells only on which side of the number the result lay.

The solubility is the concentration that dissolves in the medium under given conditions. Low values mean little dissolved substance, high ones much dissolved substance.

On to `CCOC(=O)N1c2ccc(C(F)(F)F)cc2[C@@H](N(Cc2cc(C(F)(F)F)cc(C(F)(F)F)c2)C(=O)OC)C[C@H]1CC` [Crystalline Drug 1, [2R,4S]4-[(3,5-bis-trifluoromethyl-benzyl)-methoxycarbonyl-amino]-2-ethyl-6-trifluoromethyl-3,4-dihydro-2H-quinoline-1-carboxylic acid ethyl ester], for which, in series [1], the AUC90 is reported as less than 88 min-μg/mL, the C1200 is less than 1 µg/mL and the “MDC,90” value is less than 1 µg/mL. The “Maximum Flux of Drug 1” value in series [2] (feed solution 0.5% NaTC/POPC (MFD), permeate 20 wt % decanol in decane) is listed as 0.076 μg/cm^2-min. Also, the “Maximum Flux of Drug 1” value in series [2] (feed solution 2.0 wt % NaTC/POPC (fed state model)) amounted to 0.13 μg/cm^2-min.
With `CC[C@@H]1C[C@H](N(Cc2cc(C(F)(F)F)cc(C(F)(F)F)c2)C(=O)OC)c2cc(C(F)(F)F)ccc2N1C(=O)OC(C)C` [Crystalline Drug 3, [2R,4S]4-[(3,5-bis-trifluoromethyl-benzyl)-methoxycarbonyl-amino]-2-ethyl-6-trifluoromethyl-3,4-dihydro-2H-quinoline-1-carboxylic acid isopropyl ester], in series [1], the AUC90 is listed as less than 88 min-μg/mL, the C1200 was less than 1 µg/mL and the “MDC,90” value is less than 1 µg/mL.
Turning to `O=C1Cc2cc(CCN3CCN(c4nsc5ccccc45)CC3)c(Cl)cc2N1` [Crystalline Drug 5], in series [3], the AUC90 is 1,700 min-μg/mL and the “MDC,90” value worked out at 22 µg/mL. Also, the C1200 in series [3] (1200 minutes) turned out to be 9 µg/mL.
As to `CCOC(=O)N1c2ccc(C(F)(F)F)cc2[C@@H](N(Cc2cc(C(F)(F)F)cc(C(F)(F)F)c2)C(=O)OC)C[C@H]1CC` [Drug 1, [2R,4S]4-[(3,5-bis-trifluoromethyl-benzyl)-methoxycarbonyl-amino]-2-ethyl-6-trifluoromethyl-3,4-dihydro-2H-quinoline-1-carboxylic acid ethyl ester], the results for the “solubility of the drug in the polymer” value in series [4] (in the H grade of HPMCAS) and in series [4] (in the M grade of HPMCAS) were 35-40 wt % and 25 to 30 wt %, respectively. The same compound had a solubility in series [5] of less than 0.04 µg/mL.
`CC[C@@H]1C[C@H](N(Cc2cc(C(F)(F)F)cc(C(F)(F)F)c2)C(C)=O)c2cc(C(F)(F)F)ccc2N1C(=O)OC(C)C` [Drug 2, [2R,4S]4-[acetyl-(3,5-bis-trifluoromethyl-benzyl)-amino]-2-ethyl-6-trifluoromethyl-3,4-dihydro-2H-quinoline-1-carboxylic acid isopropyl ester] returned a solubility in series [5] of less than 1 µg/mL.
`CC[C@@H]1C[C@H](N(Cc2cc(C(F)(F)F)cc(C(F)(F)F)c2)C(=O)OC)c2cc(C(F)(F)F)ccc2N1C(=O)OC(C)C` [Drug 3, [2R,4S]4-[(3,5-bis-trifluoromethyl-benzyl)-methoxycarbonyl-amino]-2-ethyl-6-trifluoromethyl-3,4-dihydro-2H-quinoline-1-carboxylic acid isopropyl ester]: the solubility in series [5] was less than 1 µg/mL.
In series [5], `CCc1cc(Oc2cccc(N(Cc3cccc(OC(F)(F)C(F)F)c3)C[C@@H](O)C(F)(F)F)c2)ccc1Cl` [Drug 4, (2R)-3-[[3-(4-chloro-3-ethylphenoxy)phenyl][[3-(1,1,2,2-tetrafluoroethoxy)phenyl]methyl]amino]-1,1,1-trifluoro-2-propanol] came in with a solubility of less than 1 µg/mL.
Take `O=C1Cc2cc(CCN3CCN(c4nsc5ccccc45)CC3)c(Cl)cc2N1` [Drug 5]: the solubility in series [5] was < 0.1 µg/mL and ~10 µg/mL.
